Measurements from PMC4001115 (International journal of toxicology, 2014).

How the values were obtained:
monkey = details: single intravenous injections up to 1 g/kg; cited from earlier work
[1] = mice, 100 mg/kg po, cited from earlier work
beagle dog = details: single intravenous injections up to 1 g/kg; cited from earlier work
CD-1 mice = experiment: Microscopic findings; format: in vivo; details: THU/DAC 167/0.0 mg/kg; for Cytoplasmic Alteration, MK (Minimal): bone marrow
[2] = test system: bone marrow polychromatic erythrocytes (PCEs); experiment: Bone marrow micronucleus analysis; format: in vivo, CD-1 mice; details: DAC 1.0 mg/kg; for Number of MPCE/1000 PCE (Mean +/− SD): single animal
[3] = Toxicokinetics: plasma DAC by LC-MS/MS after oral gavage; format: in vivo, CD-1 mice; details: for Cmax / AUC: plasma, po; for AUC: AUCfit
[4] = male, CD-1, mouse, 0.2 mg/kg, males, THU/DAC 167/0.2 mg/kg, Day 1
[5] = male, CD-1, mouse, 0.2 mg/kg, males, THU/DAC 167/0.2 mg/kg, Day 58
[6] = male, CD-1, mouse, 0.4 mg/kg, males, THU/DAC 167/0.4 mg/kg, Day 1
[7] = male, CD-1, mouse, 0.4 mg/kg, males, THU/DAC 167/0.4 mg/kg, Day 58
[8] = male, CD-1, mouse, 1 mg/kg, males, THU/DAC 0/1.0 mg/kg, Day 1
[9] = male, CD-1, mouse, 1 mg/kg, males, THU/DAC 0/1.0 mg/kg, Day 58
[10] = male, CD-1, mouse, 1 mg/kg, males, THU/DAC 167/1.0 mg/kg, Day 1
[11] = male, CD-1, mouse, 1 mg/kg, males, THU/DAC 167/1.0 mg/kg, Day 58

For `O=C1NC(O)CCN1[C@@H]1O[C@H](CO)[C@@H](O)[C@H]1O` (stereo partly drawn) [THU, tetrahydrouridine], the toxic effects (monkey) is listed as “no notable toxic effects”, the half life [1] is listed as 1.42 h and the oral bioavailability [1] is listed as 20%. For the same compound, the “sustained plasma concentrations that inhibit CDA” value ([1]; for several hours) was greater than 1 µg/mL, the toxic effects (beagle dog) was “no notable toxic effects” and the “Cytoplasmic Alteration, MK (Minimal)” value (CD-1 mice; females, Day 59) was 0/10. For the same compound, the “Cytoplasmic Alteration, MK (Minimal)” value (CD-1 mice; males, Day 59) was 0/10, the “Bone Marrow Cytoplasmic Alteration, MK, Minimal” value (CD-1 mice; females, Day 31) was 0/6 and the “Bone Marrow Hypocellularity, Marked” value (CD-1 mice; females, Day 31) was 0/6. For the same compound, the “Bone Marrow Hypocellularity, Moderate” value (CD-1 mice; females, Day 31) was 0/6, the “Duodenum Apoptosis, Minimal-Mild” value (CD-1 mice; females, Day 31) was 0/6 and the “Ileum Apoptosis, Minimal-Mild” value (CD-1 mice; females, Day 31) was 0/6. The “Jejunum Apoptosis, Minimal-Mild” value (CD-1 mice; females, Day 31) was 0/6, the “Spleen Proliferation, MK, Red Pulp, Minimal-Mild” value (“Spleen Proliferation, MK” for short) (CD-1 mice; females, Day 31) was 0/6 and the “Thymus Depletion, Lymphoid Cortex, Marked” value (“Thymus Depletion … Marked” below) (CD-1 mice; females, Day 31) was 0/5. The “Thymus Depletion, Lymphoid Cortex, Mild-Moderate” value (“Thymus Depletion … Mild-Moderate” for short) (CD-1 mice; females, Day 31) was 0/5, the “Uterus Atrophy, Mild” value (CD-1 mice; females, Day 31) was 0/6 and the “Bone Marrow Hypocellularity, Marked” value (CD-1 mice; females, Day 59) was 0/10. The “Bone Marrow Hypocellularity, Moderate” value (CD-1 mice; females, Day 59) was 0/10, the “Duodenum Apoptosis, Minimal-Mild” value (CD-1 mice; females, Day 59) was 0/10 and the “Ileum Apoptosis, Minimal-Mild” value (CD-1 mice; females, Day 59) was 0/10. For the same compound, the “Jejunum Apoptosis, Minimal-Mild” value (CD-1 mice; females, Day 59) was 0/10, the “Spleen Proliferation, MK” value (CD-1 mice; females, Day 59) was 0/10 and the “Uterus Atrophy, Mild” value (CD-1 mice; females, Day 59) was 0/10. For the same compound, the “Bone Marrow Cytoplasmic Alteration, MK, Minimal” value (CD-1 mice; males, Day 31) was 0/6, the “Bone Marrow Hypocellularity, Marked” value (CD-1 mice; males, Day 31) was 0/6 and the “Bone Marrow Hypocellularity, Moderate” value (CD-1 mice; males, Day 31) was 0/6. For the same compound, the “Duodenum Apoptosis, Minimal-Mild” value (CD-1 mice; males, Day 31) was 0/6, the “Epididymides Hypospermia, Head, Marked” value (CD-1 mice; males, Day 31) was 0/6 and the “Epididymides Hypospermia, Head, Minimal-moderate” value (CD-1 mice; males, Day 31) was 0/6. For the same compound, the “Epididymides Hypospermia, Tail, Mild-moderate” value (CD-1 mice; males, Day 31) was 0/6, the “Ileum Apoptosis, Minimal-Mild” value (CD-1 mice; males, Day 31) was 0/6 and the “Jejunum Apoptosis, Minimal-Mild” value (CD-1 mice; males, Day 31) was 0/6. The “Spleen Proliferation, MK” value (CD-1 mice; males, Day 31) was 0/6, the “Testis Degeneration, Seminiferous Tubules, Marked” value (CD-1 mice; males, Day 31) was 0/6 and the “Testis Degeneration, Seminiferous Tubules, Minimal-mild” value (CD-1 mice; males, Day 31) was 0/6. For the same compound, the “Testis Degeneration, Seminiferous Tubules, Moderate” value (CD-1 mice; males, Day 31) was 0/6, the “Thymus Depletion … Marked” value (CD-1 mice; males, Day 31) was 0/6 and the “Thymus Depletion … Mild-Moderate” value (CD-1 mice; males, Day 31) was 0/6. For the same compound, the “Bone Marrow Hypocellularity, Marked” value (CD-1 mice; males, Day 59) was 0/10, the “Bone Marrow Hypocellularity, Moderate” value (CD-1 mice; males, Day 59) was 0/10 and the “Duodenum Apoptosis, Minimal-Mild” value (CD-1 mice; males, Day 59) was 0/10. For the same compound, the “Epididymides Hypospermia, Head, Marked” value (CD-1 mice; males, Day 59) was 0/10, the “Epididymides Hypospermia, Head, Moderate” value (CD-1 mice; males, Day 59) was 0/10 and the “Epididymides Hypospermia, Tail, Mild-moderate” value (CD-1 mice; males, Day 59) was 0/10. For the same compound, the “Ileum Apoptosis, Minimal-Mild” value (CD-1 mice; males, Day 59) was 0/10, the “Jejunum Apoptosis, Minimal-Mild” value (CD-1 mice; males, Day 59) was 0/10 and the “Spleen Proliferation, MK” value (CD-1 mice; males, Day 59) was 0/10. The “Testis Degeneration, Seminiferous Tubules, Marked” value (CD-1 mice; males, Day 59) was 0/10, the “Testis Degeneration, Seminiferous Tubules, Mild-moderate” value (CD-1 mice; males, Day 59) was 0/10 and the “Testis Degeneration, Seminiferous Tubules, Severe” value (CD-1 mice; males, Day 59) was 0/10. For the same compound, the “Thymus Depletion … Marked” value (CD-1 mice; males, Day 59) was 0/10 and the “Thymus Depletion … Mild-Moderate” value (CD-1 mice; males, Day 59) was 0/10.

For `Nc1ncn([C@H]2C[C@H](O)[C@@H](CO)O2)c(=O)n1` [DAC, 5-aza-2’-deoxycytidine], the “Number of MPCE/PCE Scored” value ([2]; F) was “^*73 / 2000”, the “PCE/Total Erythrocytes (Mean+/−SD)” value ([2]; F) was 0.168±0.05 and the “PCE/Total Erythrocytes, Change from Control” value ([2]; F) was −65%. For the same compound, the “Number of MPCE/1000 PCE (Mean +/− SD)” value ([2]; F) was 36.5 ± ^1SD, the “Number of MPCE/PCE Scored” value ([2]; M) was “^*41 / 2000” and the “PCE/Total Erythrocytes (Mean+/−SD)” value ([2]; M) was 0.127±0.06. For the same compound, the “PCE/Total Erythrocytes, Change from Control” value ([2]; M) was −73%, the “Number of MPCE/1000 PCE (Mean +/− SD)” value ([2]; M) was 20.5 ± ^1SD and the “DAC detectable in plasma through (post dose)” value ([3]; both, CD-1, mouse, in vivo) was 180 min. The “DAC exposure, female mice compared to males” value ([3]; both, CD-1, mouse, in vivo) was ~ 2 fold, the Cmax ([3]; female, CD-1, mouse, 0.2 mg/kg, females, THU/DAC 167/0.2 mg/kg, Day 1) was 1900 nM and the Cmax ([3]; female, CD-1, mouse, 0.2 mg/kg, females, THU/DAC 167/0.2 mg/kg, Day 58) was 960 nM. The Cmax ([3]; female, CD-1, mouse, 0.4 mg/kg, females, THU/DAC 167/0.4 mg/kg, Day 1) was 2780 nM, the Cmax ([3]; female, CD-1, mouse, 0.4 mg/kg, females, THU/DAC 167/0.4 mg/kg, Day 58) was 1650 nM and the Cmax ([3]; female, CD-1, mouse, 1 mg/kg, females, THU/DAC 0/1.0 mg/kg, Day 1) was 2050 nM. For the same compound, the Cmax ([3]; female, CD-1, mouse, 1 mg/kg, females, THU/DAC 0/1.0 mg/kg, Day 58) was 1230 nM, the “DAC detectable in plasma through (post dose)” value ([3]; male, CD-1, mouse, in vivo) was 120 min and the AUC [3, 4] was 1.57 µM·h. For the same compound, the AUC [3, 5] was 1.25 µM·h, the Cmax [3, 4] was 1180 nM and the Cmax [3, 5] was 700 nM. It also gave an AUC [3, 6] of 3.08 µM·h, an AUC [3, 7] of 2.11 µM·h and a Cmax [3, 6] of 2620 nM. It also gave a Cmax [3, 7] of 980 nM, an AUC [3, 8] of 0.864 µM·h and an AUC [3, 9] of 0.976 µM·h. For the same compound, the AUC [3, 10] was 7.65 µM·h, the AUC [3, 11] was 5.87 µM·h and the Cmax [3, 8] was 1750 nM. For the same compound, the Cmax [3, 9] was 1200 nM, the Cmax [3, 10] was 5810 nM and the Cmax [3, 11] was 4740 nM. For the same compound, the “time of plasma DAC Cmax” value ([3]; oral DAC with or without THU) was no more than 1 h.
